Laboratory results as given in patent US11492348B2, “Tri-substituted aryl and heteroaryl derivatives as modulators of PI3-kinase and autophagy pathways” (Neuropore Therapies, Inc., priority 2018, dated 2022).

Each compound was assayed against PI3Kα (Homo sapiens (Human), UniProt P42336) (assay: Inhibition of PI3Kα (ADP-Glo kinase activity assay, ATP to ADP conversion)). Settings: 25 μM PIP2:PS, 60 μM ATP, 30 min reaction, luminescence.
Assay type: biochemical
Protocol: Quantification of ATP to ADP conversion as a measure of PI3Kα activity. Active PI3Kα (Life Technologies), in the presence or absence of PI3Kα inhibitor, was reacted with PIP2:PS (Life Technologies), a substrate specifically optimized for use with Class I PI3 kinases, and ultrapure ATP (Promega). The conversion of ATP to ADP by PI3Kα was measured as luminescence signal via Promega ADP-Glo kinase activity assay. Assay was validated using published PI3Kα inhibitors LY294002, PI-103, BYL719, GDC0198 and also DMSO vehicle control.
Compounds were prepared at 100× final concentration as a 12-point, 1:3 serial-dilution in DMSO series, with DMSO control as 12th point. Compound was then diluted in (25 mM HEPES pH 7.5, 1 mM EGTA, 0.3% CHAPS) prior to addition to PI3Kα. Active PI3Kα diluted to 0.24 ng/μL (1.1 nM) in (50 mM HEPES pH 7.5, 6 mM MgCl2, 1 mM EGTA, 200 mM NaCl, 0.03% CHAPS, 8 mM DTT) was incubated with compound for 0 hr and 3 hr prior to the start of the reaction. 25 μM PIP2:PS and 60 μM ATP were diluted from stock in (25 mM HEPES pH 7.5, 1 mM EGTA, 0.3% CHAPS) and added to initiate the PI3Kα reaction. Reaction time was 30 minutes. ATP to ADP conversion was measured in Luminescence Counts on DTX880 Plate Reader (Beckman Coulter). Compound IC50s were reported using GraphPad Prism software. Analytical method was non-linear regression, 4-parameter curve fit with bottom fit to validated PI3Kα inhibitor reference controls and no top fit (floating top).

PI3Kα, sequence (P42336 whole entry): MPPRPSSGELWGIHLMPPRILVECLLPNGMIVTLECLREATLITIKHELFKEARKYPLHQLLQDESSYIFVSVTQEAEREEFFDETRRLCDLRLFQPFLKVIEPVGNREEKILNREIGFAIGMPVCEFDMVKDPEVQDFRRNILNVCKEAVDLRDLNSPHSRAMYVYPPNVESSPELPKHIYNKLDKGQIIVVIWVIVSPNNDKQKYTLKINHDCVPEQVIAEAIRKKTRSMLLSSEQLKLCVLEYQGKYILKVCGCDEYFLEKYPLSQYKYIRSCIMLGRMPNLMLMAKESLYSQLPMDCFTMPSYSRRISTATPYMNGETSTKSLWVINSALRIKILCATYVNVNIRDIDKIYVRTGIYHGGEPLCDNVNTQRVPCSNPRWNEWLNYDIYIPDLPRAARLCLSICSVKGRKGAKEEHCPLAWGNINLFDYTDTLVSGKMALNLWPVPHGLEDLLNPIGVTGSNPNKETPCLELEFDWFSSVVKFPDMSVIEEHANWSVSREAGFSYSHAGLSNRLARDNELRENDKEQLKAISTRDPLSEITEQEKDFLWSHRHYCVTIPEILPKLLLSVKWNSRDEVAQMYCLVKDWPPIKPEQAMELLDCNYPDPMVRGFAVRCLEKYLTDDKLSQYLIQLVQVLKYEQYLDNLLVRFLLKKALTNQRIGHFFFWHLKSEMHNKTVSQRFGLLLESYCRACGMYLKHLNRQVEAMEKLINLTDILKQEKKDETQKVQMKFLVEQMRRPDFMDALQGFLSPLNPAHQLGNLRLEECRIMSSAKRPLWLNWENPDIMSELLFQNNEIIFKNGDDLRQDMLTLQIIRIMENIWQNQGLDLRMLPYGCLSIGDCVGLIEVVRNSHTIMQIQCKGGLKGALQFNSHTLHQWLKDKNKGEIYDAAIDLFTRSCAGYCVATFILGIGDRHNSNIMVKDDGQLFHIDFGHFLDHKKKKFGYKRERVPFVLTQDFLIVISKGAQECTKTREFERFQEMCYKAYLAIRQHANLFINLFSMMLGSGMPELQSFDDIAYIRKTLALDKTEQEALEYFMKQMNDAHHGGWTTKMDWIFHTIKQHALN
PI3Kα, sequence (P27986 whole entry partner): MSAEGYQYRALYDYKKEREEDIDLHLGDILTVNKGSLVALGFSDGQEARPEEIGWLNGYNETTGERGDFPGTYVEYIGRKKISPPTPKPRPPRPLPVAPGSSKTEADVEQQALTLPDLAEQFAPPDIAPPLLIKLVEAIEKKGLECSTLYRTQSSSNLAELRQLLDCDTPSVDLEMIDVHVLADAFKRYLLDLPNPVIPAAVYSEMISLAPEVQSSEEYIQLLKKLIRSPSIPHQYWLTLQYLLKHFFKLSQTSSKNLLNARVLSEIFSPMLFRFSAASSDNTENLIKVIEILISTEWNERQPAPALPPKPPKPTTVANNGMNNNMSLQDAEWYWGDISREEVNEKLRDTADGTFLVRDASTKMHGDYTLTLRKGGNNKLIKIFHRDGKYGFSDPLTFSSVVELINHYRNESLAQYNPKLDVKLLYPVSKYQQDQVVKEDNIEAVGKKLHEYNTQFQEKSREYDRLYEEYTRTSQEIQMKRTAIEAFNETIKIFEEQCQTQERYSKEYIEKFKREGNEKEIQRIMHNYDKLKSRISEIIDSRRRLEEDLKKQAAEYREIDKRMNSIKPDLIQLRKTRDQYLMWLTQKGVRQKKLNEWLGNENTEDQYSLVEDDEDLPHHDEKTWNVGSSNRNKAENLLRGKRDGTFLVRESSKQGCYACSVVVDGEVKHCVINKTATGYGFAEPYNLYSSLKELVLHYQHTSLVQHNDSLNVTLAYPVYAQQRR

Row | Structure (SMILES) | PI3Ka IC50 [µM]
1 | Nc1ncc(-c2cc(N3CCCCC3)cc(S(=O)(=O)c3ccccc3)c2)cn1 [Compound 25, 5-(3-(phenylsulfonyl)-5-(piperidin-1-yl)phenyl)pyrimidin-2-amine] | 30
2 | O=S(=O)(Cc1ccc(F)cc1)c1cc(-c2ccc3c(c2)OCCN3)cc(N2CCOCC2)c1 [Compound 45, 7-(3-((4-fluorobenzyl)sulfonyl)-5-morpholinophenyl)-3,4-dihydro-2H-benzo[b][1,4]oxazine] | 5.9
3 | Nc1ncc(-c2cc(N3CCOCC3)cc(S(=O)(=O)c3ccccc3)c2)c(C(F)(F)F)n1 [Compound 3, 5-(3-morpholino-5-(phenylsulfonyl)phenyl)-4-(trifluoromethyl)pyrimidin-2-amine] | 2.0
4 | O=C1COc2cc(-c3cc(N4CCOCC4)cc(S(=O)(=O)Cc4ccc(F)cc4)c3)ccc2N1 [Compound 42, 7-(3-((4-fluorobenzyl)sulfonyl)-5-morpholinophenyl)-2H-benzo[b][1,4]oxazin-3(4H)-one] | 4.7
5 | CCNC(=O)Nc1ccc(-c2cc(N3CCOCC3)cc(S(=O)(=O)Cc3ccc(F)cc3)c2)cc1OC [Compound 40, 1-ethyl-3-(3′-((4-fluorobenzyl)sulfonyl)-3-methoxy-5′-morpholino-[1,1′-biphenyl]-4-yl)urea] | 6.5
6 | O=S(=O)(Cc1ccc(F)cc1)c1cc(-c2cccc(OC(F)(F)F)c2)cc(N2CCOCC2)c1 [Compound 46, 4-(5-((4-fluorobenzyl)sulfonyl)-3′-(trifluoromethoxy)-[1,1′-biphenyl]-3-yl)morpholine] | 19

Other lines, results leading:

Row | PI3Ka IC50 [µM] | Structure (SMILES)
7 | 0.58 | CC(C)(C)C(=O)N1CC(S(=O)(=O)c2cc(-c3cnc(N)nc3)cc(N3CCOCC3)c2)C1 [Compound 86, 1-(3-((3-(2-aminopyrimidin-5-yl)-5-morpholinophenyl)sulfonyl)azetidin-1-yl)-2,2-dimethylpropan-1-one]
8 | 0.83 | Nc1ncc(-c2cc(S(=O)(=O)c3ccccc3)cc(N3CC4CCC(C3)O4)n2)cn1 [Compound 151, 5-(6-(8-oxa-3-azabicyclo[3.2.1]octan-3-yl)-4-(phenylsulfonyl)pyridin-2-yl)pyrimidin-2-amine]
9 | 4.3 | Cc1cc(N)nnc1-c1cc(N2CCOCC2)cc(S(=O)(=O)Cc2ccc(F)cc2F)c1 [Compound 99, 6-(3-((2,4-difluorobenzyl)sulfonyl)-5-morpholinophenyl)-5-methylpyridazin-3-amine]
10 | 0.0070 | Nc1ncc(-c2cc(S(=O)(=O)C3COc4ccccc43)cc(N3CCOCC3)n2)cn1 (stereo not drawn) [Compound 147, 5-(4-((2,3-dihydrobenzofuran-3-yl)sulfonyl)-6-morpholinopyridin-2-yl)pyrimidin-2-amine]
11 | 1.3 | O=S(=O)(Cc1ccccc1)c1cc(-c2cnc(NC3CC3)nc2)cc(N2CCOCC2)c1 [Compound 104, 5-(3-(benzylsulfonyl)-5-morpholinophenyl)-N-cyclopropylpyrimidin-2-amine]
12 | 0.39 | Nc1cc(C(F)(F)F)c(-c2cc(S(=O)(=O)c3ccccc3)cc(N3CCOCC3)n2)cn1 [Compound 144, 6-morpholino-4-(phenylsulfonyl)-4′-(trifluoromethyl)-[2,3′-bipyridin]-6′-amine]
13 | 0.0057 | Nc1ncc(-c2cc(S(=O)(=O)[C@H]3CCOC3)cc(N3CCOCC3)n2)cn1 [Compound 142a, (S)-5-(6-morpholino-4-((tetrahydrofuran-3-yl)sulfonyl)pyridin-2-yl)pyrimidin-2-amine]
14 | 12 | COc1cncc(-c2cc(N3CCOCC3)cc(S(=O)(=O)Cc3ccc(F)cc3)c2)c1 [Compound 55, 4-(3-((4-fluorobenzyl)sulfonyl)-5-(5-methoxypyridin-3-yl)phenyl)morpholine]

Same assay, conditions: 25 μM PIP2:PS, 60 μM ATP, 30 min reaction, luminescence; read-out: PI3Ka IC50

Row | IC50 [µM] | Structure (SMILES)
15 | 0.0045 | Nc1ncc(-c2cc(S(=O)(=O)C3CCOc4ccccc43)cc(N3CCOCC3)n2)cn1 (single isomer, unassigned; (+)) [(+) 143, 5-(4-(chroman-4-ylsulfonyl)-6-morpholinopyridin-2-yl)pyrimidin-2-amine]
